This note sets out measurements from ChEMBL document CHEMBL5674860, “Optimized Dual-Glo Assay to identify co-culture-induced drug vulnerabilities in 3D CRC models” (2024).

Format in all cases: functional, Homo sapiens
What all share (design): dose or concentration left out as unconfirmed

Assay [1] deals with Colon cancer organoid. In words: Optimized Dual-Glo assay to identify co-culture induced drug vulnerabilities using donated chemical probes and chemogenomics kinase set in O14 CRC organoid and F14 CAF mono and co-culture. […] Cell viability is reported both mono and co-culture models.
Assay [2] concerns Colon cancer organoid. In words: Optimized Dual-Glo assay to identify co-culture induced drug vulnerabilities using donated chemical probes and chemogenomics kinase set in O06 CRC organoid and F06 CAF mono and co-culture. […] Cell viability is reported both mono and co-culture models.
Assay [3] relates to Colon cancer organoid. In words: Optimized Dual-Glo assay to identify co-culture induced drug vulnerabilities using donated chemical probes and chemogenomics kinase set in O20 CRC organoid and F20 CAF mono and co-culture. […] Cell viability is reported both mono and co-culture models.
Where [4] appears, read: Culture type Co-Culture, Transduced with Lucferase2-P2A-EGFP lentivirus.
Setting [5] is: Culture type Co-Culture, Transduced with Renilla-dsRed lentivirus.
The mark [6] stands for this setting: Culture type Mono-Culture, Transduced with Lucferase2-P2A-EGFP lentivirus.
[7] abbreviates: Culture type Mono-Culture, Transduced with Renilla-dsRed lentivirus.

“And” between values parts separate entries of the source, which are not always exact repeats. Identical values can stand only once.

As to `COc1cc2c(cc1OCCCN1CCCC1)N=C(N)C21CCC1`, the “Cell Viability” value came out at 71.4641% in assay [1] (setting [4]); 82.9559% in assay [1] (setting [5]); 58.4791% in assay [1] (setting [6]); 57.8128% in assay [1] (setting [7]); 84.9948% in assay [2] (setting [4]); 83.704% in assay [2] (setting [5]). For the same compound, the “Cell Viability” value in assay [2] (setting [6]) was determined as 86.6673%; in assay [2] (setting [7]), 61.562%; in assay [3] (setting [4]) it was 75.7779%; in assay [3] (setting [5]) it was 100.254%; in assay [3] (setting [6]), 68.8586%; in assay [3] (setting [7]), 68.8682%.
`Cc1sc2c(c1C)C(c1ccc(Cl)cc1)=N[C@H](CC(=O)OC(C)(C)C)c1nnc(C)n1-2`: the “Cell Viability” value in assay [1] (setting [4]) was found to be 111.301%; in assay [1] (setting [5]), 136.501%; in assay [1] (setting [6]), 108.464%; in assay [1] (setting [7]), 107.072%; in assay [2] (setting [4]), 107.283%; in assay [2] (setting [5]) it was 109.974%. The “Cell Viability” value is listed as 69.4816% in assay [2] (setting [6]); 97.8447% in assay [2] (setting [7]); 98.7176% in assay [3] (setting [4]); 113.657% in assay [3] (setting [5]); 118.396% in assay [3] (setting [6]); 90.6965% in assay [3] (setting [7]).
As for `CCCc1cc(C)[nH]c(=O)c1CNC(=O)c1cc(-c2ccc(N3CCN(C(C)C)CC3)nc2)cc2c1cnn2C(C)C`, the “Cell Viability” value in assay [1] (setting [4]) was 66.7096%; in assay [1] (setting [5]), 94.8471%; in assay [1] (setting [6]), 83.1931%; in assay [1] (setting [7]), 95.0739%; in assay [2] (setting [4]), 81.1391%; in assay [2] (setting [5]), 118.175%. Moreover, the “Cell Viability” value turned out to be 116.95% in assay [2] (setting [6]); 88.1686% in assay [2] (setting [7]); 58.7881% in assay [3] (setting [4]); 157.842% in assay [3] (setting [5]); 61.2858% in assay [3] (setting [6]); 75.3301% in assay [3] (setting [7]).
With `COc1ccc(CCc2nc3cc(-c4c(C)noc4C)ccc3n2C[C@H](C)N2CCOCC2)cc1Cl`, the “Cell Viability” value is on record as 90.4848% in assay [1] (setting [4]); 144.282% in assay [1] (setting [5]); 124.855% in assay [1] (setting [6]); 138.359% in assay [1] (setting [7]); 78.634% in assay [2] (setting [4]); 97.126% in assay [2] (setting [5]). Further, the “Cell Viability” value in assay [2] (setting [6]) turned out to be 66.152%; in assay [2] (setting [7]), 156.889%; in assay [3] (setting [4]), 95.7417%; in assay [3] (setting [5]) it was 133.846%; in assay [3] (setting [6]), 83.4803%; in assay [3] (setting [7]) it was 106.755%.
As to `COc1cc(C#N)ccc1S(=O)(=O)Nc1ccc2c(c1)cc(C)c(=O)n2C`, the “Cell Viability” value was 68.1001% in assay [1] (setting [4]); 108.689% in assay [1] (setting [5]); 83.6696% in assay [1] (setting [6]); 112.833% in assay [1] (setting [7]); 94.9001% in assay [2] (setting [4]); 111.598% in assay [2] (setting [5]). The “Cell Viability” value in assay [2] (setting [6]) was determined as 60.6858%; in assay [2] (setting [7]), 105.903%; in assay [3] (setting [4]) it was 96.6614%; in assay [3] (setting [5]), 124.149%; in assay [3] (setting [6]) it was 82.6901%; in assay [3] (setting [7]) it was 95.7551%.
For `O=C(/C=C/N1C[C@H]2C[C@@H]1CN2c1ccccn1)c1ccccc1O`, the “Cell Viability” value in assay [1] (setting [4]) is 76.8483%; in assay [1] (setting [5]), 107.425%; in assay [1] (setting [6]), 87.3467%; in assay [1] (setting [7]), 104.591%; in assay [2] (setting [4]) it was 122.112%; in assay [2] (setting [5]) it was 121.159%. Further, the “Cell Viability” value in assay [2] (setting [6]) was 115.481%; in assay [2] (setting [7]) it was 98.9347%; in assay [3] (setting [4]), 98.7098%; in assay [3] (setting [5]), 109.392%; in assay [3] (setting [6]) it was 120.989%; in assay [3] (setting [7]), 80.1119%.
Take `CCCS(=O)(=O)c1nc(NC2CC2)cc(-c2ccc3c(ccn3C3CC(C)(C)NC(C)(C)C3)c2)n1`: the “Cell Viability” value in assay [1] (setting [4]) was 89.4811% and 97.6343%; in assay [1] (setting [5]) it was 131.118% and 106.572%; in assay [1] (setting [6]), 78.7545% and 88.3769%; in assay [1] (setting [7]), 100.347% and 100.989%; in assay [2] (setting [4]) it was 80.022% and 93.4216%; in assay [2] (setting [5]), 88.9327% and 142.491%. Besides, the “Cell Viability” value is 57.3495% and 53.1993% in assay [2] (setting [6]); 66.0436% and 80.8259% in assay [2] (setting [7]); 90.8821% and 132.572% in assay [3] (setting [4]); 94.2313% and 119.463% in assay [3] (setting [5]); 112.848% and 138.911% in assay [3] (setting [6]); 68.5534% and 89.7285% in assay [3] (setting [7]).
As for `CCC(=O)N1CCOc2c(cc(-c3ccc(OC)c(OC)c3)cc2OCC2CCCN(C)C2)C1` (stereo not drawn), the “Cell Viability” value in assay [1] (setting [4]) came to 85.4363%; in assay [1] (setting [5]), 159.816%; in assay [1] (setting [6]) it was 85.7096%; in assay [1] (setting [7]), 112.054%; in assay [2] (setting [4]) it was 113.999%; in assay [2] (setting [5]), 135.091%. Further, the “Cell Viability” value came to 45.0129% in assay [2] (setting [6]); 100.645% in assay [2] (setting [7]); 85.3108% in assay [3] (setting [4]); 123.175% in assay [3] (setting [5]); 108.47% in assay [3] (setting [6]); 90.76% in assay [3] (setting [7]).
As for `O=C(NCC(=O)N1CCCC1)Nc1ccc2cnccc2c1`, the “Cell Viability” value in assay [1] (setting [4]) was 77.6259%; in assay [1] (setting [5]), 126.417%; in assay [1] (setting [6]), 75.4606%; in assay [1] (setting [7]), 109.537%; in assay [2] (setting [4]), 80.3687%; in assay [2] (setting [5]), 124.064%. Besides, the “Cell Viability” value is given as 84.4387% in assay [2] (setting [6]); 94.1078% in assay [2] (setting [7]); 120.858% in assay [3] (setting [4]); 100.064% in assay [3] (setting [5]); 123.325% in assay [3] (setting [6]); 84.2387% in assay [3] (setting [7]).
Consider `Cl.Cl.c1ccc([C@@H]2C[C@H]2NC2CCNCC2)cc1`, for which the “Cell Viability” value in assay [1] (setting [4]) was 82.3558%; in assay [1] (setting [5]), 127.479%; in assay [1] (setting [6]), 88.7328%; in assay [1] (setting [7]), 113.061%; in assay [2] (setting [4]), 78.4875%; in assay [2] (setting [5]), 97.0217%. In addition, the “Cell Viability” value in assay [2] (setting [6]) was 85.9094%; in assay [2] (setting [7]), 106.355%; in assay [3] (setting [4]), 42.5951%; in assay [3] (setting [5]), 97.3617%; in assay [3] (setting [6]), 75.8314%; in assay [3] (setting [7]), 98.3245%.
On to `CCCCNNC(=O)c1ccc(Br)cc1`, for which the “Cell Viability” value in assay [1] (setting [4]) amounted to 82.2147%; in assay [1] (setting [5]), 109.67%; in assay [1] (setting [6]), 123.977%; in assay [1] (setting [7]), 94.4376%; in assay [2] (setting [4]), 113.204%; in assay [2] (setting [5]), 110.004%. The “Cell Viability” value in assay [2] (setting [6]) is listed as 101.234%; in assay [2] (setting [7]), 117.719%; in assay [3] (setting [4]), 131.228%; in assay [3] (setting [5]), 114.511%; in assay [3] (setting [6]) it was 127.902%; in assay [3] (setting [7]) it was 88.6471%.
`COc1cc(Nc2ccnc3ccc(Br)cc23)cc(OC)c1OC`: the “Cell Viability” value in assay [1] (setting [4]) amounted to 114.11%; in assay [1] (setting [5]), 94.8334%; in assay [1] (setting [6]), 91.9496%; in assay [1] (setting [7]), 94.0266%; in assay [2] (setting [4]) it was 12.1878%; in assay [2] (setting [5]), 144.697%. For the same compound, the “Cell Viability” value came out at 4.043% in assay [2] (setting [6]); 101.861% in assay [2] (setting [7]); 3.207% in assay [3] (setting [4]); 235.19% in assay [3] (setting [5]); 3.534% in assay [3] (setting [6]); 97.9085% in assay [3] (setting [7]).
On to `O=C(NC[C@H](O)CN1CCc2ccccc2C1)c1ccnc(NC2CCC2)c1`, for which the “Cell Viability” value in assay [1] (setting [4]) is reported as 29.3409%; in assay [1] (setting [5]), 134.373%; in assay [1] (setting [6]) it was 40.919%; in assay [1] (setting [7]) it was 88.6314%; in assay [2] (setting [4]), 33.1368%; in assay [2] (setting [5]) it was 110.399%. Also, the “Cell Viability” value in assay [2] (setting [6]) was 67.3977%; in assay [2] (setting [7]), 84.1228%; in assay [3] (setting [4]) it was 42.8317%; in assay [3] (setting [5]) it was 143.569%; in assay [3] (setting [6]) it was 53.6752%; in assay [3] (setting [7]), 63.4646%.
Consider `Cl.O=C([C@@H](Cc1cccc(C(F)(F)F)c1)NS(=O)(=O)c1cc(F)c2c(c1)CCNC2)N1CCCC1`, for which the “Cell Viability” value is 99.1964% in assay [1] (setting [4]); 106.618% in assay [1] (setting [5]); 90.5758% in assay [1] (setting [6]); 109.686% in assay [1] (setting [7]); 84.043% in assay [2] (setting [4]); 115.078% in assay [2] (setting [5]). Also, the “Cell Viability” value came out at 78.4722% in assay [2] (setting [6]); 93.27% in assay [2] (setting [7]); 152.168% in assay [3] (setting [4]); 150.248% in assay [3] (setting [5]); 145.099% in assay [3] (setting [6]); 80.4285% in assay [3] (setting [7]).
